Laboratory results as given in patent US20160243056A1, “Sustained Release Formulations Containing Methylglyoxal and Their Therapeutic Applications” (priority 2013, published 2016).
Like-named read-outs stand apart in the source and are kept apart here.

Columns and labels:
L1236 = details: cited from earlier work
peritoneal macrophages [1] = test: Peritoneal macrophage count in treated mice; assay type: in vivo; details: for Peritoneal macrophage Count (×10^6): bare MG 20 mg/kg body weight/day iv
Description: Values in the bracket denote dose at mg/kg body wt/day • Ehrlich ascites carcinoma (EAC) cells developed in the intraperitoneal cavity of mouse were collected in different time intervals. After washing with normal saline the cells were re-suspended in phosphate buffered saline. […] Number of Sarcoma-180 cells inoculated to each mouse was 1×10^6. The tumor bearing mice were treated with modified nano-methylglyoxal (present formulation) in normal saline through intravenous route to study the tumor growth inhibition by nano-methylglyoxal. Treatment started after 7 days of inoculation in mice intravenously with 50 μl nanoMG in solution (containing 5 μg methylglyoxal). Mice in the negative control group were similarly treated intravenously with normal saline and the positive control groups were treated intravenously with bare methylglyoxal (20 mg/kg body weight/day) in normal saline. Each group contained six mice. Each set of experiment was repeated four times. melatonin (0.25 mg/kg body weight/day), creatine (150 mg/kg body weight/day) and Ascorbic acid (50 mg/kg body weight/day) were fed orally to each mouse everyday. Treatment was given with single daily dose for consecutive 12 days. […] Treatment started after 7 days of inoculation in mice intravenously with 50 μl nanoMG in solution (containing 5 μg methylglyoxal). Treatment was continued for 20 doses (six doses per week) in 23 days. Melatonin (0.25 mg/kg body weight/day), creatine (150 mg/kg body weight/day) and Ascorbic acid (50 mg/kg body weight/day) were fed orally to each mouse. • d) Solid tumor bearing mice treated with nanoMG as described previously were sacrificed for the isolation of macrophages. Briefly, RPMI-1640 was injected in the peritoneal cavity of mouse and peritoneal macrophages were isolated and centrifuged and resuspended in RPMI-1640+10% FBS and used further for immunomodulatory studies. […] In the present invention, effect of modified nanomethylGlyoxal, against tumor in mice, have been studied. Briefly, Swiss albino female mice aged 4-6 weeks weighing 18-20 g were taken. Each group contained four mice. […]

Sarcoma-180 cells [2] = details: sarcoma-180 cells injected concomitantly with Methylglyoxal; cited from earlier work
[3] = system: Ehrlich ascites carcinoma (EAC) cells; test: Tumor growth inhibition of EAC cells inoculated intraperitoneally in mice (Trypan Blue cell count); assay type: in vivo
Description: The Effect of Nano-Methylglyoxal on the Excessive Proliferation of Cancerous Cells in Mice was Investigated as Follows: • a) Mice bearing Ehrlich ascites carcinoma cells (No. of EAC cell inoculated each mouse=1×10^6) were treated intravenously with nano-methylglyoxal in normal saline to observe the effect of cell proliferation. Treatment started after 24 hrs, of inoculation in mice intravenously with three different doses of nanoMG in solution. In first group every day each mouse received 25 μl nanoMG solution (containing 2.5 μg methylglyoxal), in second group each mouse received 50 μl nanoMG solution (containing 5 μg methylglyoxal) and in third group each mouse received 100 μl nanoMG solution (containing 10 μg methylglyoxal). Mice in the negative control group were similarly treated intravenously with normal saline and the positive control groups were treated intravenously with bare methylglyoxal (20 mg/kg body weight/day) in normal saline. Each group contains six mice. Each set of experiment was repeated four times. Melatonin (0.25 mg/kg body weight/day), creatine (150 mg/kg body weight/day) and Ascorbic acid (50 mg/kg body weight/day) were fed orally to each mouse. Treatment was continued for consecutive 8 days (Table-5, Table-6). […]

sarcoma-180 cells [4] = test: Measurement of tumor volume, Sarcoma-180 tumour in left hind leg of mice; assay type: in vivo, Swiss albino female mice; details: bare methylglyoxal 20 mg/kg body weight/day iv, five days a week
Description: In the present invention, effect of modified nanomethylGlyoxal, against tumor in mice, have been studied. Briefly, Swiss albino female mice aged 4-6 weeks weighing 18-20 g were taken. Each group contained four mice. Tumors were developed in the left hind leg of a mouse by intra-muscular injection of sarcoma-180 cells (approximately 2×10^6 cells in each mouse). Each set of experiment was repeated 4 times. Drug was administered to the mice intravenously, five days a week. Polymer conjugated methylglyoxal (Nano-MG) was administered intravenously at an amount of 0.4 mg/kg body weight/day. One group received bare methylglyoxal (20 mg/kg body weight/day). Drug was administered after 72 hours of inoculation of Sarcoma-180 tumour in the treated group. Treatment was continued for four weeks.

Mitochondrial Complex I = details: cited from earlier work
peritoneal macrophages [5] = test: Superoxide anion generation (production of reduced NBT) by peritoneal macrophages; assay type: in vivo, mice; details: bare MG 20 mg/kg body weight/day iv
Description: Values in the bracket denote dose at mg/kg body wt/day • Ehrlich ascites carcinoma (EAC) cells developed in the intraperitoneal cavity of mouse were collected in different time intervals. After washing with normal saline the cells were re-suspended in phosphate buffered saline. […] Number of Sarcoma-180 cells inoculated to each mouse was 1×10^6. The tumor bearing mice were treated with modified nano-methylglyoxal (present formulation) in normal saline through intravenous route to study the tumor growth inhibition by nano-methylglyoxal. Treatment started after 7 days of inoculation in mice intravenously with 50 μl nanoMG in solution (containing 5 μg methylglyoxal). Mice in the negative control group were similarly treated intravenously with normal saline and the positive control groups were treated intravenously with bare methylglyoxal (20 mg/kg body weight/day) in normal saline. Each group contained six mice. Each set of experiment was repeated four times. melatonin (0.25 mg/kg body weight/day), creatine (150 mg/kg body weight/day) and Ascorbic acid (50 mg/kg body weight/day) were fed orally to each mouse everyday. Treatment was given with single daily dose for consecutive 12 days. […] Treatment started after 7 days of inoculation in mice intravenously with 50 μl nanoMG in solution (containing 5 μg methylglyoxal). Treatment was continued for 20 doses (six doses per week) in 23 days. […]

[6] = system: Glyceraldehyde-3-Phospahte Dehydrogenase; details: cited from earlier work
Sarcoma = test: Sarcoma-bearing mice: Creatine content, CK activity and tumor size; assay type: in vivo
Text: We also investigated the status of Creatine and CK in a few post-operative tissue samples from human patients, and similar to the results of animal tissues, the Creatine content and CK activity were much reduced in both human Fibrosarcoma and Gastro-Intestinal Tract Malignancy, compared to healthy control tissues.

[7] = system: Ehrlich Ascites Carcinoma (EAC) cells; test: Oral Melatonin on EAC cells implanted intra-peritoneally in female mice; assay type: in vivo; details: Melatonin 50 mg/kg body wt.
Text: With these rationales, Melatonin has been applied to treat cancer in both animal and human in our laboratory and has shown significant improvement over the formulations without Melatonin. […] The effects of oral supplementation of Melatonin on growth of Ehrlich Ascites Carcinoma (EAC) cells implanted intra-peritoneally in female mice were studied in our lab. […] It has strong antioxidant properties and anticancer and onco-static action. Melatonin has potential anticancer activity whether given alone or in association with cancer chemotherapy. […] In this study, 30 patients with untreatable metastatic solid tumors were treated with daily 30 mg oral Melatonin in conjunction with low doses of antitumor cytokines. […] In addition Melatonin may have other biological effects, which could be useful in palliative therapy of Cancer.

NC1=NCCN1CC(=O)O [Cyclocreatine, cyclocreatine]
Inhibition of proliferation (L1236): nearly entirely

CC(=O)C=O [Bare-methylglyoxal, Methylglyoxal]
Macrophage count increase with respect to untreated tumour bearing batch (peritoneal macrophages [1]; bare-MG treated mice (20 mg/kg/day iv)): two fold in bare-MG treated mice | Peritoneal macrophage Count (×10^6) (peritoneal macrophages [1]; normal mice): 10.88 ± 1.15 ×10^6 | Peritoneal macrophage Count (×10^6) (peritoneal macrophages [1]; sarcoma tumour bearing mice): 12.91 ± 1.46 ×10^6 | Tumor development (Sarcoma-180 cells [2]): No tumor developed | No. of cells on day 9 ([3]; Bare-methylglyoxal 20 mg/kg body weight/day iv, 8 consecutive doses from day 1, in million cells): 29 ± 2.9 | Sarcoma-180 + Bare-MG Volume of tumour (c.c.) (sarcoma-180 cells [4]; day 12): 1 ± 0.1 c.c. | Sarcoma-180 + Bare-MG Volume of tumour (c.c.) (sarcoma-180 cells [4]; day 16): 1.4 ± 0.05 c.c. | Sarcoma-180 + Bare-MG Volume of tumour (c.c.) (sarcoma-180 cells [4]; day 21): 2 ± 0.15 c.c. | Sarcoma-180 + Bare-MG Volume of tumour (c.c.) (sarcoma-180 cells [4]; day 26): 2 ± 0.17 c.c. | Sarcoma-180 + Bare-MG Volume of tumour (c.c.) (sarcoma-180 cells [4]; day 31): 2.73 ± 0.27 c.c. | Enzyme inhibition (Mitochondrial Complex I; enzyme of malignant cells): inhibits | Enzyme inhibition (Mitochondrial Complex I; enzyme of normal cells): no inhibitory effect | Superoxide anion generation Production of reduced NBT (peritoneal macrophages [5]; normal mice): 243 ± 2.82 µmol | Superoxide anion generation Production of reduced NBT (peritoneal macrophages [5]; sarcoma tumour bearing mice): 317.5 ± 10.60 µmol | Enzyme inhibition ([6]; enzyme of malignant cells): inhibits | Enzyme inhibition ([6]; enzyme of normal cells): no inhibitory effect

CN(CC(=O)O)C(=N)N [Creatine]
Effect of Creatine administration on the effect of Methylglyoxal and Ascorbic Acid (Sarcoma): significantly augmented

COc1ccc2[nH]cc(CCNC(C)=O)c2c1 [Melatonin]
Effect of introducing melatonin on tumor growth inhibition of EAC cells ([3]; melatonin in combination with ascorbic acid and creatine, with modified NanoMG): 2. Efficacy is enhanced further when melatonin is introduced in combination with ascorbic acid and creatine for tumor growth inhibition of EAC cells in mice | Survival of the treated mice [7]: increased the survival | Viability and volume of Ehrlich Ascites Carcinoma cells [7]: reduced the viability and volume
